Consider 2 molecules from PMC4428687 (FEMS yeast research, 2013).

The target of experiment [1] is CaPma1p (Candida albicans, UniProt A0A1D8PJ01). Nature of the experiment: ATPase activity. It is filed as biochemical.
Experiment [2] has as its target CaPma1p (Candida albicans, UniProt A0A1D8PJ01, A570P/A595V/D557N/D559E/I574L/N594R/S564G/S601N/V186I/V531I). Nature of the experiment: biochemical.
Experiment [3] addresses CaPma1p (Candida albicans, UniProt A0A1D8PJ01, A570P/A595V/I574L/N594R/S601N). Nature of the experiment: biochemical.
The target in experiment [4] is CaPma1p-ScPma2p chimera expressed in Saccharomyces cerevisiae (C. albicans SC5314 (with residues of S. cerevisiae Pma2p)) (UniProt P28877). Nature of the experiment: SEC. In general terms: In gel filtration, larger molecules generally elute earlier.

A word on the IC50: it is the concentration needed to halve the response being measured. Lower therefore signals higher potency. For the molecule `[O]=[V]([OH])([OH])[OH]` [vanadate], the IC50 in experiment [1], in experiment [2] and in experiment [3] was 2 to 9 µM in each case.

What is called stoichiometry N is a count of units in the complex or per binding partner. In the case of “CaPma1p-ScPma2p chimera expressed in Saccharomyces cerevisiae (from UniProt P28877 1-895) (enzyme)”, the stoichiometry N in experiment [4] was above 4.
